Data as given in US20140303260A1, “PHARMACEUTICAL COMPOSITIONS OF RESVERATROL” (NAD Life Pty Ltd, priority 2011, published 2014).

What was measured:
blood NAD levels = test: NAD levels in a test group of subjects after administration of resveratrol, buccal/sublingual composition versus oral; assay type: in vivo, human
Method: A 35% increased blood NAD level was sustained at 4 hrs compared to baseline. […] The comparison of the effect on NAD levels between oral administration of resveratrol and buccal/sublingual membrane administration of resveratrol is best shown in FIG. 3. This graph depicts the difference in the change in a subject's NAD levels (in ng/mL) when resveratrol is administered orally (absorption through the gastrointestinal tract) compared to when resveratrol is administrated by the pharmaceutical composition of the present invention (absorption through the buccal/sublingual membranes).

[1] = cited from earlier work

**Q.** What does the source list for Oc1ccc(C=Cc2cc(O)cc(O)c2)cc1 [resveratrol]?
**A.** increase in blood NAD levels (blood NAD levels; absorption through buccal/sublingual membranes (FIG. 1), at 1 hr (60 min)): 41%; increased blood NAD level sustained compared to baseline (blood NAD levels; absorption through buccal/sublingual membranes, at 4 hrs): 35%; change in blood NAD levels (blood NAD levels; delivered via powdered slurry (gastrointestinal absorption alone)): No observable change; level of NAD after oral administration (blood NAD levels; oral, absorbed through the gastrointestinal tract (FIG. 2), in only some of the people in the group): only a mild increase; solubility in aqueous solutions [1]: almost insoluble
